Test results as given in PubChem BioAssay AID330 (DTP/NCI, 2004).
“And” between values parts separate entries of the source, which are not always exact repeats. Equal values may be shown once. Toxic doses and inconclusive results are not listed.

Test system: P388 leukemia ip, CD2F1 mice, survival T/C
Test: NCI In Vivo Anticancer Drug Screen. Data for tumor model P388 Leukemia (intraperitoneal) in CD2F1 (CDF1) mice
Settings: endpoint: median survival time, higher = longer survival
Procedure, shortened: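 Mice carrying the transplanted tumor received test compound or vehicle. Survival was recorded in each group, and the value is the treated-group measurement divided by that of the vehicle-treated control group.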

[1] = dose: 60.0 mg/kg/injection, schedule: Q01DX005 (ip), vehicle: saline with Tween-80
[2] = dose: 50.0 mg/kg/injection, schedule: Q01DX009 (ip), vehicle: saline with Tween-80
[3] = dose: 100.0 mg/kg/injection, schedule: Q01DX009 (ip), vehicle: saline with Tween-80
[4] = dose: 200.0 mg/kg/injection, schedule: Q01DX009 (ip), vehicle: saline with Tween-80
[5] = dose: 120.0 mg/kg/injection, schedule: Q01DX005 (ip), vehicle: saline with Tween-80

`O=C1C(c2cnccn2)=C(O)c2ccccc21` was tested, and the T/C (dose: 15.0 mg/kg/injection, schedule: Q01DX005 (ip), vehicle: saline with Tween-80) was 91 % of control, the T/C (dose: 30.0 mg/kg/injection, schedule: Q01DX005 (ip), vehicle: saline with Tween-80) was 97 % of control and the T/C [1] was 100 % of control and 90 % of control.

With `N#CC1OC1c1ccccn1` (stereo not given) the T/C (dose: 6.25 mg/kg/injection, schedule: Q01DX005 (ip), vehicle: saline + Tween-80 + alcohol) was 98 % of control and the T/C (dose: 12.5 mg/kg/injection, schedule: Q01DX005 (ip), vehicle: saline + Tween-80 + alcohol) was 98 % of control.

With `C=C1CCN(c2ccc(F)cc2)C1=O` the T/C (dose: 4.0 mg/kg/injection, schedule: Q01DX009 (ip), vehicle: saline + alcohol) was 100 % of control and 103 % of control and 90 % of control, the T/C (dose: 8.0 mg/kg/injection, schedule: Q01DX009 (ip), vehicle: saline + alcohol) was 104 % of control and 107 % of control and 94 % of control and the T/C (dose: 16.0 mg/kg/injection, schedule: Q01DX009 (ip), vehicle: saline + alcohol) was 110 % of control and 97 % of control. The T/C (dose: 32.0 mg/kg/injection, schedule: Q01DX009 (ip), vehicle: saline + alcohol) was 98 % of control and 103 % of control and 104 % of control and the T/C (dose: 64.0 mg/kg/injection, schedule: Q01DX009 (ip), vehicle: saline + alcohol) was 98 % of control and 100 % of control and 95 % of control.

`CC(=O)C(=Cc1c(N(C)c2ccccc2)nn2ccccc12)C(C)=O` was tested, and the T/C (dose: 100.0 mg/kg/injection, schedule: Q01DX001 (ip), vehicle: saline with Tween-80) was 100 % of control, the T/C (dose: 200.0 mg/kg/injection, schedule: Q01DX001 (ip), vehicle: saline with Tween-80) was 100 % of control and the T/C (dose: 400.0 mg/kg/injection, schedule: Q01DX001 (ip), vehicle: saline with Tween-80) was 100 % of control.

With `NC(=O)c1cn(C2OC(CO)C(O)C2O)c2ncnc(N)c12` (stereo not given) the T/C (dose: 0.06 mg/kg/injection, schedule: Q03HX024 (ip), vehicle: saline) was 105 % of control, the T/C (dose: 0.13 mg/kg/injection, schedule: Q01DX009 (ip), vehicle: saline) was 100 % of control and the T/C (dose: 0.13 mg/kg/injection, schedule: Q03HX008 (ip), vehicle: saline) was 111 % of control. The T/C (dose: 0.13 mg/kg/injection, schedule: Q03HX016 (ip), vehicle: saline) was 122 % of control, the T/C (dose: 0.13 mg/kg/injection, schedule: Q03HX024 (ip), vehicle: saline) was 111 % of control and the T/C (dose: 0.25 mg/kg/injection, schedule: Q01DX009 (ip), vehicle: saline) was 111 % of control. The T/C (dose: 0.25 mg/kg/injection, schedule: Q03HX008 (ip), vehicle: saline) was 111 % of control, the T/C (dose: 0.25 mg/kg/injection, schedule: Q03HX016 (ip), vehicle: saline) was 111 % of control and the T/C (dose: 0.25 mg/kg/injection, schedule: Q03HX024 (ip), vehicle: saline) was 111 % of control. For the same molecule, the T/C (dose: 0.5 mg/kg/injection, schedule: Q01DX005 (ip), vehicle: saline with Tween-80) was 151 % of control, the T/C (dose: 0.5 mg/kg/injection, schedule: Q01DX009 (ip), vehicle: saline) was 105 % of control and the T/C (dose: 0.5 mg/kg/injection, schedule: Q01DX009 (ip), vehicle: suspension in saline) was 154 % of control. The T/C (dose: 0.5 mg/kg/injection, schedule: Q03HX008 (ip), vehicle: saline) was 111 % of control, the T/C (dose: 0.5 mg/kg/injection, schedule: Q03HX016 (ip), vehicle: saline) was 116 % of control and the T/C (dose: 0.5 mg/kg/injection, schedule: Q03HX024 (ip), vehicle: saline) was 111 % of control. For the same molecule, the T/C (dose: 0.5 mg/kg/injection, schedule: Q04DX003 (ip), vehicle: saline) was 105 % of control, the T/C (dose: 1.0 mg/kg/injection, schedule: Q01DX001 (ip), vehicle: saline) was 111 % of control and the T/C (dose: 1.0 mg/kg/injection, schedule: Q01DX005 (ip), vehicle: saline with Tween-80) was 161 % of control. For the same molecule, the T/C (dose: 1.0 mg/kg/injection, schedule: Q01DX009 (ip), vehicle: saline) was 111 % of control, the T/C (dose: 1.0 mg/kg/injection, schedule: Q01DX009 (ip), vehicle: suspension in saline) was 154 % of control and the T/C (dose: 1.0 mg/kg/injection, schedule: Q03HX008 (ip), vehicle: saline) was 94 % of control. The T/C (dose: 1.0 mg/kg/injection, schedule: Q03HX016 (ip), vehicle: saline) was 122 % of control, the T/C (dose: 1.0 mg/kg/injection, schedule: Q04DX003 (ip), vehicle: saline) was 116 % of control and the T/C (dose: 1.0 mg/kg/injection, schedule: Q08DX002 (ip), vehicle: saline) was 111 % of control. For the same molecule, the T/C (dose: 2.0 mg/kg/injection, schedule: Q01DX001 (ip), vehicle: saline) was 111 % of control, the T/C (dose: 2.0 mg/kg/injection, schedule: Q01DX005 (ip), vehicle: saline with Tween-80) was 169 % of control and the T/C (dose: 2.0 mg/kg/injection, schedule: Q01DX009 (ip), vehicle: saline) was 100 % of control. For the same molecule, the T/C (dose: 2.0 mg/kg/injection, schedule: Q01DX009 (ip), vehicle: suspension in saline) was 94 % of control, the T/C (dose: 2.0 mg/kg/injection, schedule: Q04DX003 (ip), vehicle: saline) was 111 % of control and the T/C (dose: 2.0 mg/kg/injection, schedule: Q08DX002 (ip), vehicle: saline) was 111 % of control. For the same molecule, the T/C (dose: 4.0 mg/kg/injection, schedule: Q01DX001 (ip), vehicle: saline) was 122 % of control, the T/C (dose: 4.0 mg/kg/injection, schedule: Q04DX003 (ip), vehicle: saline) was 122 % of control and 118 % of control and the T/C (dose: 4.0 mg/kg/injection, schedule: Q08DX002 (ip), vehicle: saline) was 116 % of control. The T/C (dose: 8.0 mg/kg/injection, schedule: Q01DX001 (ip), vehicle: saline) was 111 % of control and the T/C (dose: 8.0 mg/kg/injection, schedule: Q08DX002 (ip), vehicle: saline) was 116 % of control.

For `CS(=O)C/C(=C/CCCl)c1ccc(F)cc1` (stereo not given), the T/C [2] was 101 % of control, the T/C [3] was 105 % of control and the T/C [4] was 96 % of control.

With `NC(Cc1cccs1)C(=O)Nc1nncs1` (stereo not given) the T/C (dose: 100.0 mg/kg/injection, schedule: Q04DX002 (ip), vehicle: suspension in saline) was 95 % of control, the T/C (dose: 200.0 mg/kg/injection, schedule: Q04DX002 (ip), vehicle: suspension in saline) was 119 % of control and the T/C (dose: 400.0 mg/kg/injection, schedule: Q04DX002 (ip), vehicle: saline) was 160 % of control. For the same molecule, the T/C (dose: 400.0 mg/kg/injection, schedule: Q04DX002 (ip), vehicle: suspension in saline) was 121 % of control and the T/C (dose: 600.0 mg/kg/injection, schedule: Q04DX002 (ip), vehicle: saline) was 160 % of control.

In the case of `COc1cc2c(cc1OC)[C@H](C(=O)O)[C@@H](c1ccc(OC(C)C)c(OC)c1)N(C)C2=O`, the T/C [1] is reported as 95 % of control, the T/C [5] is reported as 100 % of control and the T/C (dose: 240.0 mg/kg/injection, schedule: Q01DX005 (ip), vehicle: saline with Tween-80) is reported as 100 % of control.

`Cc1ccc2c(c1)C1(C)OC(C=CC1=O)O2` (stereo not given) was tested, and the T/C (dose: 25.0 mg/kg/injection, schedule: Q04DX003 (ip), vehicle: Klucel (hydroxypropylcellulose) (HPC)) was 99 % of control and 119 % of control, the T/C (dose: 50.0 mg/kg/injection, schedule: Q04DX003 (ip), vehicle: Klucel (hydroxypropylcellulose) (HPC)) was 98 % of control and the T/C (dose: 100.0 mg/kg/injection, schedule: Q04DX003 (ip), vehicle: Klucel (hydroxypropylcellulose) (HPC)) was 123 % of control and 97 % of control. For the same molecule, the T/C (dose: 200.0 mg/kg/injection, schedule: Q04DX003 (ip), vehicle: Klucel (hydroxypropylcellulose) (HPC)) was 113 % of control.

In the case of `CCOC(=O)C(C(=O)OCC)C1(O)C2CCCC21` (stereo not given), the T/C (dose: 100.0 mg/kg/injection, schedule: Q04DX002 (ip), vehicle: saline with Tween-80) is reported as 101 % of control, the T/C (dose: 200.0 mg/kg/injection, schedule: Q04DX002 (ip), vehicle: saline with Tween-80) is reported as 101 % of control and the T/C (dose: 400.0 mg/kg/injection, schedule: Q04DX002 (ip), vehicle: saline with Tween-80) is reported as 104 % of control.

For `CC(=O)/C(=C\c1cccc(Cl)c1)C(=O)CCN(C)C`, the T/C [1] was 108 % of control and 111 % of control and the T/C [5] was 115 % of control.

`N#Cc1ccc(Cl)cc1` was tested, and the T/C [2] was 101 % of control, the T/C [3] was 89 % of control and the T/C [4] was 93 % of control.

In the case of `O=C(O)c1cc(Cl)nnc1Cl`, the T/C (dose: 50.0 mg/kg/injection, schedule: Q01DX005 (ip), vehicle: saline) is reported as 109 % of control, the T/C (dose: 100.0 mg/kg/injection, schedule: Q01DX005 (ip), vehicle: saline) is reported as 100 % of control and the T/C (dose: 200.0 mg/kg/injection, schedule: Q01DX005 (ip), vehicle: saline) is reported as 104 % of control.

With `CCCCCC(CN(C)C)C(O)/C=C/c1ccc(Cl)c(Cl)c1` (stereo not given) the T/C (dose: 12.5 mg/kg/injection, schedule: Q01DX009 (ip), vehicle: saline) was 109 % of control and the T/C (dose: 25.0 mg/kg/injection, schedule: Q01DX009 (ip), vehicle: saline) was 107 % of control.

For `O=C1C(CO)=C[C@H](O)[C@H]2O[C@@H]12`, the T/C (dose: 6.25 mg/kg/injection, schedule: Q01DX009 (ip), vehicle: saline + alcohol) was 119 % of control, the T/C (dose: 12.5 mg/kg/injection, schedule: Q01DX009 (ip), vehicle: saline + alcohol) was 152 % of control and the T/C (dose: 25.0 mg/kg/injection, schedule: Q01DX009 (ip), vehicle: saline + alcohol) was 152 % of control and 157 % of control. The T/C (dose: 50.0 mg/kg/injection, schedule: Q01DX009 (ip), vehicle: saline + alcohol) was 106 % of control.
